In patent US6323001A, “Increasing the trehalose content of organisms by transforming them with combinations of the structural genes for trehalose synthase” (BTG International Ltd., priority 1994, dated 2001):
Where two headings read alike, the source gives them in different places.

Experiments:
[1] = system: extract of X2180 yeast; test: Synthesis of [14C]-trehalose from [U-14C]-G6P by extract of wild-type yeast; assay type: biochemical, S. cerevisiae; conditions: 2.5 mM ADPG
[2] = target: T1, Tre6P synthase activity of truncated trehalose synthase (Saccharomyces cerevisiae, UniProt Q00764); test: Tre6P synthase assay of truncated trehalose synthase; assay type: biochemical, baker's yeast
T1 construct: contained the 57 kDa short chain; made in house; host or cells: baker's yeast (native enzyme, proteolytically truncated during purification)
T1 sequence (Q00764 1-495): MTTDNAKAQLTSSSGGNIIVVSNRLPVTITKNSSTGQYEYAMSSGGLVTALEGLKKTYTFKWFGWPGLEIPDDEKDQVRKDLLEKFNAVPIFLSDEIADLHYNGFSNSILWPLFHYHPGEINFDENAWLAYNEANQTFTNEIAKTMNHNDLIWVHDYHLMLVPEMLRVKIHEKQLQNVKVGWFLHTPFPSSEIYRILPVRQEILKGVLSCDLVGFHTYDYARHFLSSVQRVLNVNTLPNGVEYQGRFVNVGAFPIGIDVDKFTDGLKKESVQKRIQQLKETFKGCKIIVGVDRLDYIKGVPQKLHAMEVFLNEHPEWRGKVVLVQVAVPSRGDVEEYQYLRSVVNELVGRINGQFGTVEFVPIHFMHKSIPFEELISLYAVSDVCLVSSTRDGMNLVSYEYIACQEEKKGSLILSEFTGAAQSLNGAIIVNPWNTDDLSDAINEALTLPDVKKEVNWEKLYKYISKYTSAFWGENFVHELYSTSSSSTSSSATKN
Description: (§1) With microbial materials, Tre6Pase and Tre6P synthase standard assays and other kinetic measurements were made as described by Londesborough & Vuorio [(1991) loc. cit.] except that the standard Tre6P synthase assay mixture contained 5 mM F6P unless stated otherwise.
(§2) Truncated trehalose synthase containing the short (57 kDa) chain and the 86 and 93 kDa long chain fragments was prepared according to the method of Londesborough & Vuorio (1991) loc. cit.] for proteolytically activated TPS/P complex. Tre6P synthase and Tre6Pase activities were assayed as described by Londesborough & Vuorio [(1991) loc. cit.]. [N-ethyl-1-^14C]-maleimide (ethyl-labelled NEM; 40 mCi/mmol) was NEC-454 from New England Nuclear. N-ethyl-[2,3-^14 C]-maleimide (ring-labelled NEM; 6 mCi/mmol) was CFA 293 from Amersham International. Both were obtained as solutions in n-pentane and the manufacturer's stated specific activities were assumed to be correct. Unlabelled N-ethyl-maleimide (NEM) was E-3876 from Sigma. It was dissolved in 25 mM HEPES pH 7.0 immediately before use and standardized by absorption measurements at 305 nm, assuming an E^mM of 0.62.
(§3) Truncated trehalose synthase was prepared as described by Londesborough & Vuorio [(1991) loc. cit.] and contained the 57 kDa short chain and 86 and 93 kDa fragments of the long chain. Intact trehalose synthase was prepared as in Example 1. Kinetic assays were done at 30° C. as described in General Methods and Materials.

[3] = target: Tre6Pase activity of truncated trehalose synthase (Saccharomyces cerevisiae, UniProt P31688); test: Tre6Pase assay of truncated trehalose synthase; assay type: biochemical, baker's yeast
Chain of Tre6Pase activity of truncated trehalose synthase (P31688 whole entry, one chain of several, the tested form may be a part): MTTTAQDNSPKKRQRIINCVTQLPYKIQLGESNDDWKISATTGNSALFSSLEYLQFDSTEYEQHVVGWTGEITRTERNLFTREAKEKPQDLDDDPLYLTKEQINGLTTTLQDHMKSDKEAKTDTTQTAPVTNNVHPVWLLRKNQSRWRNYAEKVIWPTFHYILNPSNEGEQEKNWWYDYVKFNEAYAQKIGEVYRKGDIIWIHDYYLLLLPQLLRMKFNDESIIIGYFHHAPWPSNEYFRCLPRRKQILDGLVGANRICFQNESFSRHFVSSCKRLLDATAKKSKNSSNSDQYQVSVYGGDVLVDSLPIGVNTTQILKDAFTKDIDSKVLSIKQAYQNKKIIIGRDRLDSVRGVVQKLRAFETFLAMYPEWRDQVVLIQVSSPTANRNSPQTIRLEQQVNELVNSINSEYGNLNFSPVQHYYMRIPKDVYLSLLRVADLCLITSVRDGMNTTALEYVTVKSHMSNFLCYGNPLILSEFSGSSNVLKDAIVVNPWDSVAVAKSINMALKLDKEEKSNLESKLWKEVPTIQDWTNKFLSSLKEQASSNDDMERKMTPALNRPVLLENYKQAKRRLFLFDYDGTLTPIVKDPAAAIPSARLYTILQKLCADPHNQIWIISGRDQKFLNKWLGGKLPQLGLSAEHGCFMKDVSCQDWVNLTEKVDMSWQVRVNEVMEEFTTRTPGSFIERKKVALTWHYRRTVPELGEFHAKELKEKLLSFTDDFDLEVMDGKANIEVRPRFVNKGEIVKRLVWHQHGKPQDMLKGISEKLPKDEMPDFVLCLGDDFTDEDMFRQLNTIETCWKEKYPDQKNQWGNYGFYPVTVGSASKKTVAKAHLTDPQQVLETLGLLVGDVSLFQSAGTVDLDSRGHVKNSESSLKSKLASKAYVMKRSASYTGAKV
Chain of Tre6Pase activity of truncated trehalose synthase (P38427 336-1098, one chain of several, further chain): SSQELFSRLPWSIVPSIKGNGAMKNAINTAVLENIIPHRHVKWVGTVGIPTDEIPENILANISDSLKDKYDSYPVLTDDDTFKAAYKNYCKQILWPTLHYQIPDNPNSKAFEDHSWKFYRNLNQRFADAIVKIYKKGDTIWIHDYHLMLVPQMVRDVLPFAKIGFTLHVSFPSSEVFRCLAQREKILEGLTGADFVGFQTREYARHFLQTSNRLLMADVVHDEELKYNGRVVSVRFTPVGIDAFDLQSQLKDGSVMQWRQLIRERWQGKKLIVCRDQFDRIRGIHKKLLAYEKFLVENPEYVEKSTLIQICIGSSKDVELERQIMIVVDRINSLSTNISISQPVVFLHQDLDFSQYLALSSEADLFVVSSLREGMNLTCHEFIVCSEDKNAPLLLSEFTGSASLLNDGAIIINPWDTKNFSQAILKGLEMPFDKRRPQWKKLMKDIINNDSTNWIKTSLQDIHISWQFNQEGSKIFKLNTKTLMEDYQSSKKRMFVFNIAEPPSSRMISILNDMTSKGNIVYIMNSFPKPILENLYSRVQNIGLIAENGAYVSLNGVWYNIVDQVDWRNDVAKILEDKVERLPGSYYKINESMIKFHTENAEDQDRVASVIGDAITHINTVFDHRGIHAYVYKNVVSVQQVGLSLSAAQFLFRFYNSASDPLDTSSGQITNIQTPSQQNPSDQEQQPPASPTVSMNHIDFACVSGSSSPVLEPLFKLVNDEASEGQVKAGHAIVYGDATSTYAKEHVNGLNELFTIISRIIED
Description: as §1, §2
(§4) In one experiment, 2.0 μl of 2.4 mM ethyl-labelled NEM was mixed with 150 μl of gel-filtered enzyme and incubated at 23° C. Samples (10 μl) taken at various times up to 190 min were mixed with 60 μl of Laemmli sample buffer (the mercapto-ethanol in this buffer should destroy residual NEM), boiled for 5 min and subjected to SDS-PAGE. At closely similar times (and also at 23 h) other samples (10 μl) were mixed with 100 μl (for Tre6P synthase) or 700 μl (for Tre6Pase) of 5 mg BSA/ml 25 mM HEPES pH 7.0 containing 2 mM MgCl2, 1 mM EDTA, 0.2 M NaCl and 1 mM dithiothreitol (the dithiothreitol should destroy residual NEM) and assayed for Tre6P synthase and Tre6Pase.
as §3

[4] = target: T2, Tre6P synthase activity of intact trehalose synthase (Saccharomyces cerevisiae, UniProt Q00764); test: Tre6P synthase assay of intact trehalose synthase; assay type: biochemical, baker's yeast; conditions: 5 or 2.5 mM; 1 mM F6P at 1.3 mM phosphate
T2 construct: Intact trehalose synthase was purified from commercial baker's yeast; made in house; host or cells: commercial baker's yeast (native enzyme purified, not recombinant)
T2 sequence (P31688 whole entry, one chain of several): as the sequence (P31688 whole entry, one chain of several, the tested form may be a part) above
T2 sequence (P38427 whole entry, one chain of several, further chain): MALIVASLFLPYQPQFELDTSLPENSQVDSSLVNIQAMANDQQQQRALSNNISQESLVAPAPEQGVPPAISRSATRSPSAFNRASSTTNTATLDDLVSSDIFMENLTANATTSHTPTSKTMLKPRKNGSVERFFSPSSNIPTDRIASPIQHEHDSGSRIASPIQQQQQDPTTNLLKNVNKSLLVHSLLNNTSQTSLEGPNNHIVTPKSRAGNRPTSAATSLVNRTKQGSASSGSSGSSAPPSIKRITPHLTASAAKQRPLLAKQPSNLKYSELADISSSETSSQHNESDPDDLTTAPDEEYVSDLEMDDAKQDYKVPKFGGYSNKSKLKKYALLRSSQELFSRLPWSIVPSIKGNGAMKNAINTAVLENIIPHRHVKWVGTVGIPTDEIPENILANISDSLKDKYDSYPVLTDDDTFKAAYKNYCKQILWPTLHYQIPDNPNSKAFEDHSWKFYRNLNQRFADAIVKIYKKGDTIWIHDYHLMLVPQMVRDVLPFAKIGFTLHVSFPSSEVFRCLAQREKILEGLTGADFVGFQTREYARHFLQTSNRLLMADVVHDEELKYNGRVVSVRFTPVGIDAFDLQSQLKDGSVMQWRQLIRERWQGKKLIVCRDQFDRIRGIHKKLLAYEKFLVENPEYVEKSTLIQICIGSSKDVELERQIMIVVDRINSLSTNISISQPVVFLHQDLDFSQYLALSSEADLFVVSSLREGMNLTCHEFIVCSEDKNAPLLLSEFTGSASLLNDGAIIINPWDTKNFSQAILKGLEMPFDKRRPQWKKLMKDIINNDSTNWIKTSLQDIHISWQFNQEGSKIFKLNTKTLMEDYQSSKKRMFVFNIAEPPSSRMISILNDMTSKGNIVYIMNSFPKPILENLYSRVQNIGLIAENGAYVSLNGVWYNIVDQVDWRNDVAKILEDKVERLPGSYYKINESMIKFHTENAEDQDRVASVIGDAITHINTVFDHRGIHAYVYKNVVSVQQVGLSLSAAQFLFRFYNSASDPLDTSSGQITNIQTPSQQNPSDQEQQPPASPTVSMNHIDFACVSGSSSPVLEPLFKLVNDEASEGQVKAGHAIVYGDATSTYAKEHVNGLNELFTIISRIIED
Description: as §1
Removal of the N-terminal 325 or so amino acids from the 123 kDa long chain of intact trehalose synthase by treatment with trypsin in vitro produces an enzyme with catalytic properties like those of the truncated enzyme purified by Londesborough & Vuorio [(1991) loc. cit.]. In one experiment intact trehalose synthase (0.28 Tre6P synthase units, ≈9.4 μg) was incubated with or without 0.5 μg of trypsin at 30° C. in 250 μl of 13 mM HEPES pH 7.0 containing 1 mM MgCl2, 0.5 mM EDTA, 0.5 mM dithiothreitol, 0.2 M NaCl and 0.5 mM benzamidine. Its Tre6P synthase activity was determined at intervals using standard assay mixtures (containing 5 mM F6P) containing no or 4 mM K phosphate pH 6.8, and samples were prepared for SDS-PAGE analysis immediately before and 48 min after addition of the trypsin.
as §3

[5] = target: T3, 93 and 86 kDa long chain fragments of truncated trehalose synthase (Saccharomyces cerevisiae, UniProt P38427); test: Labelling of truncated trehalose synthase with [14C]-NEM; assay type: binding, baker's yeast; conditions: for NEM entered the long chain fragments: 32 μM ethyl-labelled NEM; for NEM incorporated into long chain fragments at complete loss of Tre6Pase: per mole of truncated trehalose synthase, ring- and ethyl-labelled NEM
T3 construct: 93 kDa band may also hold TPS2 fragment
T3 sequence (P38427 336-1098): as the sequence (P38427 336-1098, one chain of several, further chain) above
Description: as §4
After electrophoresis, the upper (cathode) buffer, containing most of the added radioactivity, was completely removed before disassembling the apparatus. The gel was then fixed, stained and destained as described by Laemmli [(1970) Nature, London 227, 680-685] and dried. […] The Coomassie blue stained bands and adjacent, empty areas (as blanks) were cut out of the dried gel (in later experiments, they were cut from undried gels), broken up and extracted overnight with 1 ml of 5% SDS in pre-blanked scintillation vials. Then 10 ml of a toluene/Triton X100-based scintillant was added, and the tubes were repeatedly counted using a wide energy window to minimise quench effects. After 10 h constant counting levels were reached. Excess radioactivity was calculated by subtracting a blank value obtained from empty regions of the gel.

Structure (SMILES): Nc1ncnc2c1ncn2[C@@H]1O[C@H](COP(=O)(O)OP(=O)(O)O[C@H]2O[C@H](CO)[C@@H](O)[C@H](O)[C@H]2O)[C@@H](O)[C@H]1O [ADPG, adenosine 5'-diphosphoglucose]
- effect on rate of appearance of radioactivity [1]: did not cause any significant increase

Structure (SMILES): O=C(O)c1cc(SSc2ccc([N+](=O)[O-])c(C(=O)O)c2)ccc1[N+](=O)[O-] [DTNB, dithiodinitro-benzoate]
- inhibition at 900 µM ([2]; 10 min, 0,9 mM DTNB, 10 min, read-out: Tre6P synthase lost): < 28%
- inhibition at 900 µM ([3]; 10 min, read-out: Tre6Pase lost, 0,9 mM DTNB, 10 min): > 95%

Structure (SMILES): O=C(COP(=O)(O)O)[C@@H](O)[C@H](O)[C@H](O)CO [Fructose-1-phosphate]
- inhibition of Tre6P synthase activity [4]: about 25%

Structure (SMILES): CCN1C(=O)C=CC1=O [NEM, N-ethyl-maleimide]
- inhibition at 1900 µM ([2]; 1.9 mM NEM, 24° C., about 0.17 mM dithiothreitol, read-out: loss of Tre6P synthase activity): ≤ 24%
- inhibition at 32 µM ([3]; 0.175 h, read-out: initial Tre6Pase lost, 32 μM ethyl-labelled NEM, 23° C., 10.5 min): 30%
- inhibition at 32 µM ([3]; 190 min, read-out: initial Tre6Pase lost, 32 μM ethyl-labelled NEM, 23° C., 190 min): 56%
- inhibition at 1900 µM ([3]; read-out: loss of Tre6Pase activity, 1.9 mM NEM, 24° C., about 0.17 mM dithiothreitol): ≥ 98%
- NEM entered the long chain fragments ([5]; 10.5 min): 0.20 moles per mole (150 Kg) of enz
- NEM entered the long chain fragments ([5]; 190 min): 0.32 moles per mole (150 Kg) of enz
- NEM incorporated into long chain fragments at complete loss of Tre6Pase [5]: less than 1 mole
- NEM incorporated into long chain fragments at complete loss of Tre6Pase ([5]; listed as 14C-N-ethylmaleimide): about 1 mole

Structure (SMILES): O=C(COP(=O)(O)O)[C@@H](O)[C@H](O)[C@H](O)COP(=O)(O)O [fructose-1,6-bisphosphate]
- inhibition of Tre6P synthase activity [4]: about 25%

Structure (SMILES): O=P(O)(O)OC[C@H]1O[C@@](CO)(OP(=O)(O)O)[C@@H](O)[C@@H]1O [fructose-2,6-bisphosphate]
- inhibition of Tre6P synthase activity [4]: about 25%

Structure (SMILES): O=P(O)(O)O[C@H]1O[C@H](CO)[C@@H](O)[C@H](O)[C@H]1O [glucose-1-phosphate]
- inhibition of Tre6P synthase activity [4]: about 25%
